Results as given in patent publication US20040176393A1, “Statin-MMP inhibitor combinations” (priority 1998, published 2004).

Legend:
Format in all cases: biochemical
MMP-3 (stromelysin) = MMP-3 (stromelysin) (Homo sapiens, UniProt P08254); assay: thiopeptolide substrate hydrolysis assay, MMP-3; settings: inhibition of hydrolytic activity of the enzyme, read-out: IC50 MMP3
Method: (§1) The assays measure the amount by which a test compound reduces the hydrolysis of a thiopeptolide substrate caused by a matrix metalloproteinase enzyme.
(§2) Thiopeptolide substrates show virtually no decomposition or hydrolysis in the absence of a matrix metalloproteinase enzyme. A typical thiopeptolide substrate commonly utilized for assays is Ac-Pro-Leu-Gly-thioester-Leu-Leu-Gly-OEt. […] Assays are carried out with and without matrix metalloproteinase inhibitor compounds, and the amount of hydrolysis is compared for a determination of inhibitory activity of the test compounds.

MMP-2 (Gelatinase A) = biological target: T1, MMP-2 (Gelatinase A) (Homo sapiens, UniProt P08253); assay: thiopeptolide substrate hydrolysis assay, MMP-2; settings: inhibition of hydrolytic activity of the enzyme, read-out: IC50 MMP2
T1 sequence (P08253 110-660): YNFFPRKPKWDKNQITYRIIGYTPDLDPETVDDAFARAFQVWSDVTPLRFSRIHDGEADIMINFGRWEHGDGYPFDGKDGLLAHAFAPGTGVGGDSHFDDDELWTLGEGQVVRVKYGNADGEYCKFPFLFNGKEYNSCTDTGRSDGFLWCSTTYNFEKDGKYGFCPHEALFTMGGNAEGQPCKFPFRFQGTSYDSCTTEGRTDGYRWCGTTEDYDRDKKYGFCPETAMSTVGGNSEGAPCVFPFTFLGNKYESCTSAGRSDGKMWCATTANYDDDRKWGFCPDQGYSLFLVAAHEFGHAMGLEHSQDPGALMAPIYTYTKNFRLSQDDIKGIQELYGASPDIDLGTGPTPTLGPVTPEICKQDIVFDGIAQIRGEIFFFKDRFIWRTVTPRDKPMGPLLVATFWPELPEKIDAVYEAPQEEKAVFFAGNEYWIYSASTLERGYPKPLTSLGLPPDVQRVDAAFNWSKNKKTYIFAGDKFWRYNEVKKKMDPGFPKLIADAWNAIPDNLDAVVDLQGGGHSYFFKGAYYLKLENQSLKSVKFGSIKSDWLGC
Method: as §1, §2

[1] = biological target: T2, MMP-1 (interstitial collagenase) (Homo sapiens, UniProt P03956); assay: thiopeptolide substrate hydrolysis assay, MMP-1; settings: inhibition of hydrolytic activity of the enzyme, read-out: IC50 MMP1
T2 sequence (P03956 100-469): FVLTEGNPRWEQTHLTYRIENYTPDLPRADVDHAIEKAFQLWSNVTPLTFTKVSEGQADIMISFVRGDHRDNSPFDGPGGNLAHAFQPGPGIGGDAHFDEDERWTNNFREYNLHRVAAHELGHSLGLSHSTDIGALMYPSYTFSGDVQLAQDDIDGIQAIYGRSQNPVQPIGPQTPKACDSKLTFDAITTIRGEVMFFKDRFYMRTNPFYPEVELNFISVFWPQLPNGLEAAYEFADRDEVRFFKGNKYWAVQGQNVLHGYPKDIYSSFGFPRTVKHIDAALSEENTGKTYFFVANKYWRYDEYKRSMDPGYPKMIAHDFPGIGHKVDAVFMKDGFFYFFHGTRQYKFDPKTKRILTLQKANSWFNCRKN
Method: as §1, §2

Sequence of MMP-3 (stromelysin) (P08254 100-477, species assumed): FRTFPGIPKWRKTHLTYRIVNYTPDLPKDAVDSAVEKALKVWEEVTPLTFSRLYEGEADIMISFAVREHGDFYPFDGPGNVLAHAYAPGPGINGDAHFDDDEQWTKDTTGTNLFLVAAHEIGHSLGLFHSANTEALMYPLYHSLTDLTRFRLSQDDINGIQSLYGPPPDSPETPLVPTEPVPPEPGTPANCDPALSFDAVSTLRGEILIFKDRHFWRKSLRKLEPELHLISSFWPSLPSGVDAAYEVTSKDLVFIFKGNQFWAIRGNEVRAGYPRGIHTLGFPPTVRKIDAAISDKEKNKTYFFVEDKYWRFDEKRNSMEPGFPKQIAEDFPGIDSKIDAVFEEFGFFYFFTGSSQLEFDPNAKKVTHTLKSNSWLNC

Row | SMILES | IC50 (MMP-3 (stromelysin)) [nM] | IC50 (MMP-2 (Gelatinase A)) [nM] | IC50 [1] [nM]
1 | O=C(O)CCC(O)c1ccc(-c2ccc(Cl)cc2)cc1 (racemic) [(±)-4-(4′-Chloro-biphenyl-4-yl)-4-hydroxy-butyric acid] | 280 | 150 | –
2 | O=C(O)CCC(=NO)c1ccc(-c2ccc(Br)cc2)cc1 [4-(4′-Bromo-biphenyl-4-yl)-4-hydroxyimino-butyric acid] | 110 | 58 | –
3 | CN(C)N=C(CCC(=O)O)c1ccc(-c2ccc(Cl)cc2)cc1 [4-(4′-Chloro-biphenyl-4-yl)-4-(dimethylhydrazono)-butyric acid] | 930 | 730 | –
4 | O=C(O)CCC(=NO)c1ccc(-c2ccc(Cl)cc2)cc1 [4-(4′-Chloro-biphenyl-4-yl)-4-hydroxyimino-butyric acid] | 120 | 390 | –
5 | O=C(O)CCC(=O)c1ccc(N2CCN(c3ccccc3)CC2)cc1 [4-Oxo-4-[4-(4-phenyl-piperazin-1-yl)-phenyl]-butyric acid] | 250 | 1600 | –
6 | O=C(O)CCC(=O)c1ccc(N2CCC(c3ccccc3)CC2)cc1 [4-Oxo-4-[4-(4-phenyl-piperidin-1-yl)-phenyl]-butyric acid] | 140 | 1300 | –
7 | O=C(O)[C@H](CS)NS(=O)(=O)c1ccc2oc3ccccc3c2c1 [(L)-2-(Dibenzofuran-2-sulfonylamino)-3-mercapto-propionic acid] | 690 | 4450 | –
8 | CC(C)[C@H](NS(=O)(=O)c1ccc2oc3ccccc3c2c1)C(=O)O [(L)-2-(Dibenzofuran-2-sulfonylamino)-3-methyl-butyric acid] | 230 | 84 | –
9 | O=C(O)[C@H](Cc1ccccc1)NS(=O)(=O)c1ccc2oc3ccccc3c2c1 [(L)-2-(Dibenzofuran-2-sulfonylamino)-3-phenyl-propionic acid] | 720 | 890 | –
10 | O=C(O)[C@H](CSC(c1ccccc1)(c1ccccc1)c1ccccc1)NS(=O)(=O)c1ccc2oc3ccccc3c2c1 [(L)-2-(Dibenzofuran-2-sulfonylamino)-3-tritylsulfanyl-propionic acid] | 14400 | 9400 | –
11 | CC(C)C[C@H](NS(=O)(=O)c1ccc2oc3ccccc3c2c1)C(=O)O [(L)-2-(Dibenzofuran-2-sulfonylamino)-4-methyl-pentanoic acid] | 1180 | 320 | –
12 | O=C(O)[C@H](Cc1ccccc1)NS(=O)(=O)c1ccc(-c2ccc(Br)cc2)cc1 [(S)-2-(4′-Bromo-biphenyl-4-sulfonylamino)-3-phenyl-propionic acid] | – | 26 | –
13 | O=C(O)[C@H](CCc1ccccc1)NS(=O)(=O)c1ccc2oc3ccccc3c2c1 [(S)-2-(Dibenzofuran-2-sulfonylamino)-4-phenyl-butyric acid] | 460 | 265 | –
14 | CC(=O)N[C@@H](CC(=O)c1ccc2oc3ccccc3c2c1)C(=O)O [(S)-2-Acetylamino-4-dibenzofuran-2-yl-4-oxo-butyric acid] | 1550 | 160 | –
15 | N[C@@H](CC(=O)c1ccc2oc3ccccc3c2c1)C(=O)O [(S)-2-Amino-4-dibenzofuran-2-yl-4-oxo-butyric acid] | 33000 | 3800 | –
16 | O=C(O)[C@H](Cc1ccccc1)NS(=O)(=O)c1ccc(N2CCC(Cc3ccccc3)CC2)cc1 [(S)-2-[4-(4-Benzyl-piperidin-1-yl)-benzenesulfonyl-amino]-3-phenyl-propionic acid] | 21 | 88 | –
17 | COc1ccc(N2CCN(c3ccc(S(=O)(=O)N[C@@H](Cc4ccccc4)C(=O)O)cc3)CC2)cc1 [(S)-2-{4-[-4-(4-Methoxy-phenyl)-piperazin-1-yl]-benzenesulfonylamino}-3-phenyl-propionic acid] | 14 | 33 | –
18 | CC(C)[C@H](NS(=O)(=O)c1ccc(-c2ccc([N+](=O)[O-])cc2)cc1)C(=O)O [(S)-3-Methyl-2-(4′-nitro-biphenyl-4-sulfonylamino)-butyric acid] | 100 | – | –
19 | O=C(O)[C@H](Cc1ccccc1)NS(=O)(=O)c1ccc(N2CCC(c3ccccc3)CC2)cc1 [(S)-3-Phenyl-2-[4-(4-phenyl-piperidin-1-yl)-benzene-sulfonylamino]-propionic acid] | 14 | 220 | –
20 | O=C(C[C@H](NC(=O)C(F)(F)F)C(=O)O)c1ccc2oc3ccccc3c2c1 [(S)-4-Dibenzofuran-2-yl-4-oxo-2-(2,2,2-trifluoroacetylamino)-butyric acid] | 1330 | 720 | –
21 | O=C(CCc1ccccc1)N[C@@H](CC(=O)c1ccc2oc3ccccc3c2c1)C(=O)O [(S)-4-Dibenzofuran-2-yl-4-oxo-2-(3-phenyl-propionylamino)-butyric acid] | 280 | 96 | –
22 | O=C(Cc1ccccc1)N[C@@H](CC(=O)c1ccc2oc3ccccc3c2c1)C(=O)O [(S)-4-Dibenzofuran-2-yl-4-oxo-2-phenylacetylamino-butyric acid] | 330 | 84 | –
23 | O=C(CNS(=O)(=O)c1ccc(N2CCC(c3ccccc3)CC2)cc1)NO [N-Hydroxy-2-[4-(4-phenyl-piperidin-1-yl)-benzene-sulfonylamino]-acetamide] | 19 | 810 | –
24 | O=C(CCC(=O)c1ccc(N2CCC(c3ccccc3)CC2)cc1)NO [N-Hydroxy-4-oxo-4-[4-(4-phenyl-piperidin-1-yl)-phenyl]-butyramide] | 20 | 40 | –
25 | CNC(=O)[C@@H](NC(=O)[C@@H](CC(=O)NO)CC(C)C)C(C)(C)C [RO-31-9790, reference compound] | 470 | 6 | 5.5
26 | CC(C)CC(CC(=O)NO)C(=O)N[C@@H](CC(C)C)C(=O)N[C@@H](Cc1ccccc1)C(N)=O (stereo partly shown) [U24522, reference compound] | 20 | – | –
27 | O=C(O)CNS(=O)(=O)c1ccc(N2CCC(c3ccccc3)CC2)cc1 [[4-(4-Phenyl-piperidin-1-yl)-benzenesulfonylamino]-acetic acid] | 20 | 210 | –
